# Test results published in ChEMBL document CHEMBL4052584, “Toward Understanding the Structural Basis of Partial Agonism at the Dopamine D3 Receptor” (J Med Chem, 2017).
# pKi: −log10 of the molar value. The source made the active and inactive calls. No cut-off for these calls is given here.
# Columns and labels:
# D(3) dopamine receptor [1] = target: T1, D(3) dopamine receptor (Homo sapiens, UniProt P35462); assay: Partial agonist activity at dopamine D3 receptor (unknown origin) expressed in HEK293 cells at 10 pM to 100 uM after 30 mins by beta-arrestin recruitment assay relative to dopamine; format: cell-based
# T1 sequence (P35462 whole entry): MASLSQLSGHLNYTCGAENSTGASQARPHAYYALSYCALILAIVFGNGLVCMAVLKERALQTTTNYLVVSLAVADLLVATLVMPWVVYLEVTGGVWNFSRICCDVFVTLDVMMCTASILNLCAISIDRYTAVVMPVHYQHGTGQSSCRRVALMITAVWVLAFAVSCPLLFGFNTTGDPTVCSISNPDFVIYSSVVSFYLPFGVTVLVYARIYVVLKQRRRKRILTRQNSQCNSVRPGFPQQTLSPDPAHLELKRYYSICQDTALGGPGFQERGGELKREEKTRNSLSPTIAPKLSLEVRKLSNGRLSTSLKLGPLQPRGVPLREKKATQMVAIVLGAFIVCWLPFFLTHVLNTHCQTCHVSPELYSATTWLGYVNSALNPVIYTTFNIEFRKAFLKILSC
# D(2) dopamine receptor = D(2) dopamine receptor (Homo sapiens, UniProt P14416); assay: Displacement of [3H]-N-methylspiperone from human dopamine D2 receptor expressed in HEK293 cells after 1 hr by MicroBeta microplate counting method; format: cell-based
# Sequence of D(2) dopamine receptor (P14416 whole entry): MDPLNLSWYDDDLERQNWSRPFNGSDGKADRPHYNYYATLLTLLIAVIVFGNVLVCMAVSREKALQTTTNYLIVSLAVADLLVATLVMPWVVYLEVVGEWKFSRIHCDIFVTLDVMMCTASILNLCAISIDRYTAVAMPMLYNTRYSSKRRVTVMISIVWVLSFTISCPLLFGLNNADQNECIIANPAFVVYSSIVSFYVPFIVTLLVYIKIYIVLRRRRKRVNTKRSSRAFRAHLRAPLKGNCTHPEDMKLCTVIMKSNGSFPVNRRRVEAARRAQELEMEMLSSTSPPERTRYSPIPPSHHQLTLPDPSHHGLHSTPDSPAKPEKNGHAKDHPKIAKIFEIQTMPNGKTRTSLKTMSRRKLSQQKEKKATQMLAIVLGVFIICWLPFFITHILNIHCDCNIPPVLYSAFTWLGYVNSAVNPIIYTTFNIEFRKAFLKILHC
# D(3) dopamine receptor [2] = target: T1, D(3) dopamine receptor; assay: Displacement of [3H]-N-methylspiperone from human dopamine D3 receptor expressed in HEK293 cells after 1 hr by MicroBeta microplate counting method; format: cell-based
# Homo sapiens = species: Homo sapiens; assay: Selectivity ratio of Ki for human dopamine D2 receptor to Ki for human dopamine D3 receptor
# D(3) dopamine receptor [3] = target: T1, D(3) dopamine receptor; assay: Partial agonist activity at dopamine D3 receptor (unknown origin) expressed in HEK293 cells at 10 pM to 100 uM after 2 mins by BRET-based Go activation assay relative to dopamine; format: cell-based; details: for Emax: 10 pM
SMILES,Activity (D(3) dopamine receptor [1]),pKi (D(2) dopamine receptor),pKi (D(3) dopamine receptor [2]),Ratio Ki (Homo sapiens),Emax (D(3) dopamine receptor [3]) [%],Activity (D(3) dopamine receptor [3]; 10 pM to 100 uM)
CC[C@@H](O)CN1CCN(c2cccc(Cl)c2Cl)CC1,inactive,6.23,6.92,5,11.6,
O=C(NCC[C@H](O)CN1CCN(c2cccc(Cl)c2Cl)CC1)c1cc2ccccc2[nH]1,Active,,,,55.7,
O=C(NCC[C@H](O)CN1CCN(c2cccc(Cl)c2Cl)CC1)c1cnc2ccccc2c1,Active,6.50,7.63,14,53.9,
CC[C@H](O)CN1CCN(c2cccc(Cl)c2Cl)CC1,Active,7.03,7.46,3,58.6,
O=C(NCCC(O)CN1CCN(c2cccc(Cl)c2Cl)CC1)c1cnc2ccccc2c1 (racemic),,6.57,8.37,63,,
O=C(NCCCCN1CCN(c2cccc(Cl)c2Cl)CC1)c1cnc2ccccc2c1,,8.00,9.76,58,20.9,
CCCCN1CCN(c2cccc(Cl)c2Cl)CC1,,,,2,,inactive
O=C(NCC[C@@H](O)CN1CCN(c2cccc(Cl)c2Cl)CC1)c1cnc2ccccc2c1,inactive,6.69,8.39,49,19.9,
O=C(NCC[C@@H](O)CN1CCN(c2cccc(Cl)c2Cl)CC1)c1cc2ccccc2[nH]1,inactive,,,,14.9,
C[C@H](O)CN1CCN(c2cccc(Cl)c2Cl)CC1,,6.50,7.12,4,,
C[C@@H](O)CN1CCN(c2cccc(Cl)c2Cl)CC1,,5.85,6.43,4,,
